Square brackets hold non-standard residues; d marks the D form. Peptide text beside a SMILES is read from it. hArg = N=C(N)NCCCC[C@H](N)C(=O)O; Aib = CC(C)(N)C(=O)O
How the values were obtained:
[1] = target: T1, wild-type human P1R (hP1R-WT) (Homo sapiens, UniProt Q03431); assay: cAMP stimulation in COS-7 cells expressing hP1R-WT; type: cell-based; details: for EC50 / cAMP EMax(obs.): hP1R-WT; for cAMP EMax(obs.): basal 10.3 ± 1.1, asterisk = plateau not attained
T1 construct: expressed in transfected cells; host or cells: COS-7 (transient, FuGENE 6)
T1 sequence (Q03431 27-593): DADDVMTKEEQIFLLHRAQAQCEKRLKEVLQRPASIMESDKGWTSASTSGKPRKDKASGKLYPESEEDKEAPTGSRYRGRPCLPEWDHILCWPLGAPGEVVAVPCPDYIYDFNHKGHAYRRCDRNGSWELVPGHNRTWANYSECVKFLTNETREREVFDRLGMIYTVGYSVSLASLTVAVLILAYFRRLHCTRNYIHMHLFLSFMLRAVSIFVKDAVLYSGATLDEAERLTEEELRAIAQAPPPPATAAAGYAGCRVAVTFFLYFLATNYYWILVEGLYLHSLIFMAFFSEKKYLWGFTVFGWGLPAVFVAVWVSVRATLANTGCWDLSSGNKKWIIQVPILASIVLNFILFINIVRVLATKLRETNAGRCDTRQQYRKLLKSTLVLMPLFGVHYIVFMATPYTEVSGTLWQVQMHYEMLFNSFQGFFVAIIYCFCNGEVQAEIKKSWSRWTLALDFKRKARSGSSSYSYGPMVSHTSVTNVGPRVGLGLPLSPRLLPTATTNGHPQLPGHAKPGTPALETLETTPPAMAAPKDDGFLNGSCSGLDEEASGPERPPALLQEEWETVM
Experimental: (§1) Cell Culture. The cell line HKRK-B28 (Takasu, H., et al., J. Bone Miner. Res. 14:11-20 (1999)) was derived from the porcine kidney cell line, LLC-PK1 by stable transfection with plasmid DNA encoding the human P1R and expresses ˜280,000 receptors per cell. These cells, as well as COS-7 cells and SaOS-2-B10 cells, were cultured at […] in T-75 flasks ([…]) in Dulbecco's modified Eagle's medium (DMEM) supplemented with fetal bovine serum (10%), penicillin G (20 units/ml), streptomycin sulfate (20 μg/ml) and amphotericin B (0.05 μg/ml) in a humidified atmosphere containing 5% CO2. Stock solutions of EGTA/trypsin and antibiotics were from GIBCO; fetal bovine serum was from Hyclone Laboratories (Logan, Utah). COS-7 cells sub-cultured in 24-well plates were transfected with plasmid DNA (200 ng per well) encoding the wild-type human P1R or truncated human P1R deleted for residues (24-181) (Shimizu, M., et al., J. Biol. Chem. 275:21836-21843 (2000)) that was purified by cesium chloride/ethidium bromide density gradient centrifugation, and FuGENE 6 transfection reagent (Roche Indianapolis Ind.) according to the manufacturer's recommended procedure. All cells, in 24-well plates, were treated with fresh media and shifted to 33° C. for 12 to 24 h prior to assay.
(§2) cAMP Stimulation. Stimulation of cells with peptide analogs was performed in 24-well plates. Cells were rinsed with 0.5 mL of binding buffer (50 mM Tris-HCI, […], 5 mM KCl, 2 mM CaCl2, 5% heat-inactivated horse serum, 0.5% fetal bovine serum, adjusted to pH 7.5 with HCl) and treated with 200 μL of cAMP assay buffer (Delbecco's modified Eagle's medium containing 2 mM 3-isobutyl-1-methylxanthine, 1 mg/mL bovine serum albumin, 35 mM Hepes-NaOH, pH 7.4) and 100 μL of binding buffer containing varying amounts of peptide analog (final volume=300 μL). The medium was removed after incubation for 30 to 60 minutes at room temperature, and the cells were frozen on dry ice, lysed with 0.5 mL 50 mM HCl, and refrozen ([…]). The cAMP content of the diluted lysate was determined by radioimmunoassay. The EC50 response values were calculated using nonlinear regression (see below).
(§3) Data Calculation. Calculations were performed using Microsoft® Excel. Nonlinear regression analyses of binding and cAMP dose-response data were performed using the four-parameter equation: yp=Min+[(Max−Min)/(1+(IC50/x)^slope)]. The Excel Solver function was utilized for parameter optimization, as described previously (Carter, P. H., et al., Endocrinology 140: 4972-4981 (1999); Bowen, W. P., and Jerman, J. C., Trends in Pharmacol. Sci. 16: 413-417 (1995)). Differences between paired data sets were statistically evaluated using a one-tailed Student's t-test, assuming unequal variances for the two sets.

[2] = target: T2, P1R-delNt, truncated human P1R deleted for residues (24-181) (Homo sapiens, UniProt Q03431); assay: cAMP stimulation in COS-7 cells expressing hP1R-delNt; type: cell-based; details: for EC50 / cAMP EMax(obs.): hP1R-delNT; for cAMP EMax(obs.): basal 9.5 ± 1.3, asterisk = plateau not attained
T2 construct: expressed in transfected cells; host or cells: COS-7 (transient, FuGENE 6)
T2 sequence (Q03431 with tags, fused parts or gaps limits assumed): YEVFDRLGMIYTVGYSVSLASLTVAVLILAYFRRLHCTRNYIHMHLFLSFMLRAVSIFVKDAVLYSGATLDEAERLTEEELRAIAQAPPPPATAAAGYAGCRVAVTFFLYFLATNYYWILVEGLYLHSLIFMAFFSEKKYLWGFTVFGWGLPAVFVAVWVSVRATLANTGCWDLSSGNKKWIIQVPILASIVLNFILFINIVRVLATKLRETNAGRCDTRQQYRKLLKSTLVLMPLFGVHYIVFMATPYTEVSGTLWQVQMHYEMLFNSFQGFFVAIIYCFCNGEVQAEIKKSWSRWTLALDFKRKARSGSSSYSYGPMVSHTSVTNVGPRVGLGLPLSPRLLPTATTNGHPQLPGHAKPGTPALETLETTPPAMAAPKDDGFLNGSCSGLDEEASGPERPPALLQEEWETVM
Experimental: as §1, §2, §3
The possibility that the activity-enhancing effects of the Aib substitutions at positions 1 and 3 were mediated through the juxtamembrane (J) region of the receptor was investigated in COS-7 cells transiently transfected with P1R-delNt. P1R-delNt was a truncated P1R that lacked most of the amino-terminal extracellular domain.

Compound	cAMP EMax ([1]; P1R-WT) [picomole/well]	EC50 [1] [nM]	cAMP EMax(obs.) [1] [pmole/well]	cAMP potency, fold weaker on P1R-delNt than P1R-WT [2] [fold]	EC50 [2] [nM]	cAMP EMax(obs.) [2] [pmole/well]	cAMP EMax ([2]; P1R-delNt) [picomole/well]	cAMP potency, fold more potent than [M]PTH(1-14) ([2]; P1R-delNt) [fold]
CCCC[C@H](NC(=O)[C@H](CCCNC(=N)N)NC(=O)[C@H](CCC(=O)O)NC(=O)[C@@H](NC(=O)[C@H](CO)NC(=O)[C@H](C)NC(=O)[C@H](CC(C)C)NC(=O)[C@H](Cc1c[nH]cn1)NC(=O)[C@H](CCCCN)NC(=O)CNC(=O)[C@H](CC(C)C)NC(=O)[C@H](CC(N)=O)NC(=O)[C@H](Cc1c[nH]cn1)NC(=O)[C@H](CCCC)NC(=O)[C@H](CC(C)C)NC(=O)[C@H](CCC(N)=O)NC(=O)[C@@H](NC(=O)[C@H](CCC(=O)O)NC(=O)[C@H](CO)NC(=O)[C@@H](NC(=O)[C@H](C)N)C(C)C)[C@@H](C)CC)C(C)C)C(=O)N[C@@H](CCC(N)=O)C(=O)N[C@@H](Cc1c[nH]c2ccccc12)C(=O)N[C@@H](CC(C)C)C(=O)N[C@@H](CCCNC(=N)N)C(=O)N[C@@H](CCCCN)C(=O)N[C@@H](CCCCN)C(=O)N[C@@H](CC(C)C)C(=O)N[C@@H](CCC(N)=O)C(=O)N[C@@H](CC(=O)O)C(=O)N[C@H](C(=O)N[C@@H](Cc1c[nH]cn1)C(=O)N[C@@H](CC(N)=O)C(=O)N[C@@H](Cc1ccc(O)cc1)C(N)=O)C(C)C [PTH(1-34), [Nle^8,21, Tyr^34]PTH(1-34)amide, reference compound]	240±50	1.4 ± 0.7	240 ± 50	~500	680 ± 110	220 ± 30		
CC[C@H](C)[C@H](NC(=O)[C@H](CCC(=O)O)NC(=O)C(C)(C)NC(=O)[C@@H](NC(=O)C(C)(C)N)C(C)C)C(=O)N[C@@H](CCC(N)=O)C(=O)N[C@@H](CC(C)C)C(=O)N[C@@H](CCSC)C(=O)N[C@@H](Cc1c[nH]cn1)C(=O)N[C@@H](CCC(N)=O)C(N)=O [[Aib^1,3,M]PTH(1-10), [Aib^1,3,Gln^10]PTH(1-10)] (H-[Aib]V[Aib]EIQLMHQ-NH2)			120 ± 10			84 ± 4		
CC[C@H](C)[C@H](NC(=O)[C@H](CCC(=O)O)NC(=O)C(C)(C)NC(=O)[C@@H](NC(=O)C(C)(C)N)C(C)C)C(=O)N[C@@H](CCC(N)=O)C(=O)N[C@@H](CC(C)C)C(=O)N[C@@H](CCSC)C(=O)N[C@@H](Cc1c[nH]cn1)C(=O)N[C@@H](CCC(N)=O)C(=O)N[C@@H](CCCCNC(=N)N)C(N)=O [[Aib^1,3,M]PTH(1-11), AibValAibGluIleGlnLeuMetHisGlnHar] (H-[Aib]V[Aib]EIQLMHQ[hArg]-NH2)			190 ± 40			220 ± 20		
CC[C@H](C)[C@H](NC(=O)[C@H](CCC(=O)O)NC(=O)C(C)(C)NC(=O)[C@@H](NC(=O)C(C)(C)N)C(C)C)C(=O)N[C@@H](CCC(N)=O)C(=O)N[C@@H](CC(C)C)C(=O)N[C@@H](CCSC)C(=O)N[C@@H](Cc1c[nH]cn1)C(=O)N[C@@H](CCC(N)=O)C(=O)N[C@@H](CCCCNC(=N)N)C(=O)N[C@@H](C)C(=O)N[C@@H](CCCCN)C(=O)N[C@@H](Cc1c[nH]c2ccccc12)C(N)=O [[Aib^1,3,M]PTH(1-14), AibValAibGluIleGlnLeuMetHisGlnHarAlaLysTrp] (H-[Aib]V[Aib]EIQLMHQ[hArg]AKW-NH2)		1.2 ± 0.6	240 ± 40		0.73 ± 0.16	250 ± 20	250±20	55
CC[C@H](C)[C@H](NC(=O)[C@H](CCC(=O)O)NC(=O)[C@H](C)NC(=O)[C@@H](NC(=O)[C@H](C)N)C(C)C)C(=O)N[C@@H](CCC(N)=O)C(=O)N[C@@H](CC(C)C)C(=O)N[C@@H](CCSC)C(=O)N[C@@H](Cc1c[nH]cn1)C(=O)N[C@@H](CCC(N)=O)C(=O)N[C@@H](CCCCNC(=N)N)C(=O)N[C@@H](C)C(=O)N[C@@H](CCCCN)C(=O)N[C@@H](Cc1c[nH]c2ccccc12)C(N)=O [[M]PTH(1-14), [Ala^3,12,Gln^10,Har^11,Trp^14]PTH(1-14)amide, reference compound] (H-AVAEIQLMHQ[hArg]AKW-NH2)			240 ± 50			220 ± 20		
H-AVSEIQLMHNLGKH-NH2 [PTH(1-14), reference compound]			140 ± 30			110 ± 10		

Source: patent US7572765B2, “Conformationally constrained parathyroid hormone (PTH) analogs” (The General Hospital Corporation, priority 2001, dated 2009)
